Assay: xn = mol fraction of the nth substance listed
Conditions: 101 kPa, Liquid, Vibrating tube method

CCNC=O [N-ethylformamide] + CCCC[N+]1(C)CCCC1.FC(F)(F)C(F)(F)[P-](F)(F)(F)(C(F)(F)C(F)(F)F)C(F)(F)C(F)(F)F
mass density [kg/m3]
Conditions | 293.15 K | 298.15 K | 303.15 K | 308.15 K | 313.15 K | 318.15 K | 323.15 K
x2 = 0.0355 | 1046.38 | 1042.01 | 1037.61 | 1033.05 | 1028.58 | 1024.03 | 1019.35
x2 = 0.0753 | 1128.67 | 1124.07 | 1119.47 | 1114.62 | 1109.94 | 1105.19 | 1100.26
x2 = 0.0995 | 1169.56 | 1164.94 | 1160.15 | 1155.23 | 1150.34 | 1145.54 | 1140.56
x2 = 0.1508 | 1240.4 | 1235.52 | 1230.53 | 1225.54 | 1220.42 | 1215.44 | 1210.24
x2 = 0.2001 | 1293.64 | 1288.61 | 1283.5 | 1278.35 | 1273.19 | 1267.97 | 1262.79
x2 = 0.3045 | 1375.94 | 1370.73 | 1365.53 | 1360.23 | 1354.95 | 1349.61 | 1344.26
x2 = 0.3996 | 1429.28 | 1424.04 | 1418.68 | 1413.37 | 1407.95 | 1402.56 | 1397.21
x2 = 0.5028 | 1472.71 | 1467.38 | 1462.01 | 1456.63 | 1451.21 | 1445.76 | 1440.28
x2 = 0.5527 | 1489.92 | 1484.53 | 1479.12 | 1473.75 | 1468.31 | 1462.86 | 1457.36
x2 = 0.5989 | 1504.15 | 1498.78 | 1493.4 | 1487.95 | 1482.48 | 1477.03 | 1471.54
x2 = 0.7015 | 1531.11 | 1525.64 | 1520.2 | 1514.75 | 1509.27 | 1503.82 | 1498.32
x2 = 0.7983 | 1552.06 | 1546.66 | 1541.23 | 1535.76 | 1530.25 | 1524.73 | 1519.18
x2 = 0.8866 | 1568.75 | 1563.32 | 1557.82 | 1552.35 | 1546.84 | 1541.33 | 1535.77
x2 = 0.951 | 1580.11 | 1574.66 | 1569.19 | 1563.71 | 1558.18 | 1552.64 | 1547.05

CCCC[N+]1(C)CCCC1.FC(F)(F)C(F)(F)[P-](F)(F)(F)(C(F)(F)C(F)(F)F)C(F)(F)C(F)(F)F + CNC=O
mass density [kg/m3]
Conditions | 293.15 K | 298.15 K | 303.15 K | 308.15 K | 313.15 K | 318.15 K | 323.15 K
x1 = 0.017 | 1058.37 | 1053.77 | 1049.14 | 1044.53 | 1039.79 | 1035.11 | 1030.3
x1 = 0.038 | 1115.08 | 1110.31 | 1105.47 | 1100.72 | 1095.79 | 1091 | 1085.98
x1 = 0.064 | 1172.33 | 1167.39 | 1162.43 | 1157.5 | 1152.45 | 1147.53 | 1142.27
x1 = 0.1395 | 1288.62 | 1283.34 | 1278.09 | 1272.85 | 1267.61 | 1262.38 | 1256.78
x1 = 0.1994 | 1349.8 | 1344.44 | 1339.03 | 1333.6 | 1328.11 | 1322.58 | 1317.13
x1 = 0.2991 | 1419.35 | 1413.93 | 1408.4 | 1402.86 | 1397.22 | 1391.56 | 1385.88
x1 = 0.4005 | 1466.49 | 1460.95 | 1455.39 | 1449.79 | 1444.2 | 1438.48 | 1432.75
x1 = 0.5044 | 1501.13 | 1495.58 | 1490.07 | 1484.49 | 1478.87 | 1473.25 | 1467.48
x1 = 0.5964 | 1524.64 | 1519.12 | 1513.49 | 1507.92 | 1502.28 | 1496.79 | 1491.13
x1 = 0.6471 | 1535.54 | 1530.04 | 1524.39 | 1518.85 | 1513.18 | 1507.72 | 1502.01
x1 = 0.7548 | 1555.34 | 1549.77 | 1544.13 | 1538.58 | 1532.92 | 1527.43 | 1521.8
x1 = 0.8413 | 1568.65 | 1563.05 | 1557.45 | 1551.88 | 1546.25 | 1540.73 | 1535.12
x1 = 0.9029 | 1577.04 | 1571.47 | 1565.91 | 1560.34 | 1554.73 | 1549.18 | 1543.58

Source: the NIST ThermoML archive (doi:10.1021/je400803f)
